Calls of active or inactive are those of the source. The calls are words filed in the database; no cut-off is given here.

Series [1] has as its system RAW264.7. The series is described as follows: Cytotoxicity against mouse RAW264.7 cells assessed as inhibition of cell growth at 10 uM incubated for 24 hrs by MTT assay. In kind it is toxicity, cell-based. The note with it: raw264.7, 24 h.
Series [2] has as its system RAW264.7. Description: Cytotoxicity against mouse RAW264.7 cells assessed as inhibition of cell growth at 50 uM incubated for 24 hrs by MTT assay. Format: toxicity, cell-based. The note with it: raw264.7, 24 h. Background: Formazan colour is commonly taken as a measure of viable cells.
Series [3] has as its system RAW264.7. The series is described as follows: Anti-inflammatory activity in LPS-induced mouse RAW264.7 cells assessed as inhibition of NO levels at 2 uM incubated for 24 hrs. In kind it is functional, cell-based.
Series [4] concerns RAW264.7. The series is described as follows: Inhibition of MAPK signaling pathway in LPS-induced mouse RAW264.7 cells assessed as reduction in ERK phosphorylation at 0.2 uM incubated for 24 hrs by Western blot analysis. Format: cell-based.
The subject of series [5] is RAW264.7. Description: Anti-inflammatory activity in LPS-induced mouse RAW264.7 cells assessed as inhibition of IL-6 level at 2 uM incubated for 24 hrs by ELISA relative to control. In kind it is functional. (ELISA stands for enzyme-linked immunosorbent assay.)
Series [6] has as its system RAW264.7. Description: Inhibition of MAPK signaling pathway in LPS-induced mouse RAW264.7 cells assessed as reduction in p38 phosphorylation at 0.2 uM incubated for 24 hrs by Western blot analysis. In kind it is cell-based. For orientation: Immunoblotting shows a protein as a band on a membrane.
Series [7] deals with RAW264.7. The series is described as follows: Inhibition of MAPK signaling pathway in LPS-induced mouse RAW264.7 cells assessed as reduction in phosphorylated SAPK/JNK level at 10 uM incubated for 24 hrs by Western blot analysis. Format: cell-based.
Series [8] relates to RAW264.7. The series is described as follows: Inhibition of NFkappaB pathway activation in LPS-induced mouse RAW264.7 cells assessed as reduction in phosphorylated IKBalpha level at 10 uM incubated for 24 hrs by Western blot analysis relative to control. In kind it is cell-based.
In series [9] the test system is RAW264.7. The series is described as follows: Inhibition of NFkappaB pathway activation in LPS-induced mouse RAW264.7 cells assessed as inhibition of p65 phosphorylation at 0.2 uM incubated for 24 hrs by Western blot analysis. In kind it is cell-based.
Series [10] has as its system RAW264.7. The series is described as follows: Cytotoxicity against mouse RAW264.7 cells assessed as inhibition of cell growth at 2 uM incubated for 24 hrs by MTT assay. In kind it is toxicity, cell-based. The note with it: raw264.7, 24 h.
For series [11], the system named is RAW264.7. Description: Inhibition of MAPK signaling pathway in LPS-induced mouse RAW264.7 cells assessed as reduction in phosphorylated p38 level at 10 uM incubated for 24 hrs by Western blot analysis. Format: cell-based.
Series [12] has as its system RAW264.7. Description: Anti-inflammatory activity in LPS-induced mouse RAW264.7 cells assessed as inhibition of NO levels incubated for 24 hrs. In kind it is functional, cell-based. Particulars: RAW264.7, 24 h.
For series [13], the system named is RAW264.7. The series is described as follows: Anti-inflammatory activity in LPS-induced mouse RAW264.7 cells assessed as inhibition of IL-1beta level at 2 uM incubated for 24 hrs by ELISA relative to control. In kind it is functional.
Series [14] in a line: Downregulation of MAPK protein expression in LPS-induced mouse RAW264.7 cells at 0.2 uM incubated for 24 hrs by Western blot analysis relative to control. In kind it is functional.
In series [15] the test system is RAW264.7. Description: Inhibition of NFkappaB pathway activation in LPS-induced mouse RAW264.7 cells assessed as inhibition of IKBalpha phosphorylation at 10 uM incubated for 24 hrs by Western blot analysis. In kind it is cell-based.
The test system of series [16] is RAW264.7. Description: Inhibition of NFkappaB pathway activation in LPS-induced mouse RAW264.7 cells assessed as reduction in phosphorylated p65 level at 0.2 to 10 uM incubated for 24 hrs by Western blot analysis relative to control. The note with it: dose 0.2-10 µM. In kind it is cell-based.
Series [17] has as its system RAW264.7. Description: Anti-inflammatory activity in LPS-induced mouse RAW264.7 cells assessed as inhibition of TNF-alpha level at 2 uM incubated for 24 hrs by ELISA relative to control. In kind it is functional.
Series [18] concerns RAW264.7. Description: Inhibition of MAPK signaling pathway in LPS-induced mouse RAW264.7 cells assessed as reduction in SAPK/JNK phosphorylation at 0.2 uM incubated for 24 hrs by Western blot analysis. In kind it is cell-based.
For series [19], the system named is RAW264.7. The series is described as follows: Anti-inflammatory activity in LPS-induced mouse RAW264.7 cells assessed as inhibition of IL-6 level at 20 uM incubated for 24 hrs by ELISA relative to control. In kind it is functional.
Series [20] relates to RAW264.7. The series is described as follows: Anti-inflammatory activity in LPS-induced mouse RAW264.7 cells assessed as inhibition of IL-1beta level at 20 uM incubated for 24 hrs by ELISA relative to control. In kind it is functional.
The test system of series [21] is RAW264.7. The series is described as follows: Anti-inflammatory activity in LPS-induced mouse RAW264.7 cells assessed as inhibition of TNF-alpha level at 20 uM incubated for 24 hrs by ELISA relative to control. Format: functional.

As to `CN1C(=O)C(Cc2ccccc2O)n2c(nc3ccccc3c2=O)C1(O)c1ccccc1` (racemic), the Activity entry in the series on RAW264.7 [1] and with RAW264.7 [2] was “Non-toxic” each time.
Take `CN1C(=O)c2nc3ccccc3c(=O)n2C(Cc2ccccc2OCC#N)C1=O` (racemic): the values for the Activity result in the series on RAW264.7 [1], in the series on RAW264.7 [2] and in the series with RAW264.7 [3] were “Non-toxic”, “Non-toxic” and “Active; Strong Ability Of No Inhibition Observed”, respectively.
In the case of `C=CCOc1ccccc1CC1C(=O)N(C)C(=O)c2nc3ccccc3c(=O)n21` (racemic), the Activity entry in the series on RAW264.7 [1] was “Non-toxic”; in the series on RAW264.7 [2] it was “Toxic”; in the series on RAW264.7 [3], “Active; Strong Ability Of No Inhibition Observed”.
For orientation: inhibition means the relative decrease from the control value, in per cent. The term IC50 denotes the midpoint of a concentration-inhibition curve. `C=CCOc1ccccc1C[C@H]1C(=O)N(C)C(=O)c2nc3ccccc3c(=O)n21`: the inhibition result in the series with RAW264.7 [4], in the series with RAW264.7 [6], in the series with RAW264.7 [9], with RAW264.7 [15] and in the series on RAW264.7 [18] was “Active” each time. Besides, the inhibition at 2 µM in the series with RAW264.7 [5] amounted to 54.5%; in the series on RAW264.7 [13], 92.9%; in the series on RAW264.7 [17], 25.6%. Also, the inhibition result with RAW264.7 [7] was “Active; Reduction In Cellular P-Sapk/Jnk Level Was Almost Close To Untreated Control”; with RAW264.7 [8], 59%; in the series on RAW264.7 [11], “Active; Reduction In Cellular P-P38 Level Was Almost Close To Untreated Control”; in the series on RAW264.7 [16] it was 50%. For the same compound, the figures for the Activity entry (in the series with RAW264.7 [10]; in series [14]) were “Non-toxic” and over 30%, respectively. Also, the IC50 in the series with RAW264.7 [12] amounted to 0.5 µM.
As for `CNC(=N)NCCC[C@H](N)C(=O)O` [TILARGININE], the inhibition at 20 µM is 27.6% with RAW264.7 [19], 61.9% in the series on RAW264.7 [20] and 19.4% with RAW264.7 [21]. In the series with RAW264.7 [12], the concentration for half-maximal inhibition (IC50) amounted to 20 µM.
Take `O=C1c2nc3ccccc3c(=O)n2C(Cc2ccccc2O)C(=O)N1Cc1ccc(Cl)cc1` (racemic): the Activity result in the series with RAW264.7 [1] and in the series with RAW264.7 [2] was “Non-toxic” each time.
For `O=C1c2nc3ccccc3c(=O)n2C(Cc2ccccc2O)C(=O)N1Cc1ccccc1Cl` (racemic), the Activity result is “Non-toxic” with RAW264.7 [1], “Non-toxic” in the series with RAW264.7 [2] and “Active; Strong Ability Of No Inhibition Observed” in the series with RAW264.7 [3].

For the origin of these results see ChEMBL document CHEMBL6177967, “Semisynthesis and biological evaluation of 17-hydroxybrevianamide N derivatives as anti-inflammatory agents by mediating NF-κB and MAPK signaling pathways” (Eur J Med Chem, 2025).
